Data: patent US6596871B2, “Polymorphic forms of 6-[4-(1-cyclohexyl-1h-tetraol-5-yl)butoxy]-3,4-dihydro-2(1H)-quinolinone” (priority 2001, dated 2003)

Assays:
[1] = aqueous solubility of cilostazol Form A; format: physicochemical; conditions: Form A as prepared by the procedures of the '479 patent
[2] = bioavailability of cilostazol Form A; format: in vivo; conditions: Form A as prepared by the procedures of the '479 patent
[3] = stability of the polymorphic form; format: physicochemical
[4] = relative solubility inferred from DSC melting behaviour; format: physicochemical; conditions: suggested by lower melting point / weaker crystal packing forces in DSC thermogram (FIG. 8)
Excerpt: (§1) Characterization of Form A of cilostazol, Form B of cilostazol, and Form C of cilostazol was further completed using DSC thermograms, shown in FIGS. 3, 4, and 5, respectively, with DSC thermograms for combinations of Form A and Form B; Form B and Form C; and Forms A, B, and C are shown in FIGS. 6, 7, and 8 respectively. DSC data were generated using a Mettler-Toledo DSC 821^e (Columbus, Ohio) with a Julabo FT900 intercooler chiller (Julabo Company; Allentown, Pa.). In general, samples were analyzed in a vented, sealed aluminum pan. Because the endothermic peak may vary depending upon the rate of heating and the calibration and precision of the instrument, with the amount of peak variation dependent upon the heating rate used, all thermograms included herein were run under the same, consistent conditions: heating at 10° C. per minute under a nitrogen purge at 40 mL/minute.
FIG. 8 illustrates a DSC thermogram for the combination of Form A, Form B and Form C having a second heating cycle with a maximum temperature of about 110° C. with a holding time of about 30 minutes. The peaks in the third heating cycle show a Form A to Form B to Form C peak area ratio of approximately 8:2:1, respectively, with the relative amount of Form A, Form B and Form C further variable on the heat of enthalpy of each polymorphic form.

[5] = solid state phase transformation of disturbed/stressed sample on heating by DSC; format: physicochemical; conditions: sample disturbed (scratching/stress), heated by DSC from 30° C. to approximately 200° C. at 10° C. per minute
Excerpt: as §1, with “mL/minute. The resultant sample of Example 1A was disturbed with scratching, which caused the cilostazol sample to undergo a solid state phase transformation at approximately 119° C. followed by an endotherm of melt at approximately 160° C. (Form A) during heating by DSC from 30° C. to approximately 200° C. at 10° C. per minute. When the sample is stressed and reheated (as detailed in Example 2A), the sample undergoes a solid state phase transformation at approximately 147° C. followed by an endotherm of melt at about 160° C. […]” for “mL/minute.”

| Structure (SMILES) | aqueous solubility [1] | bioavailability [2] | stability of the crystalline form [3] | solubility relative to Form A [4] | solid state phase transformation temperature (to Form A) [5] |
| --- | --- | --- | --- | --- | --- |
| O=C1CCc2cc(OCCCCc3nnnn3C3CCCCC3)ccc2N1 [Form A, 6-[4-(1-cyclohexyl-1H-tetrazol-5-yl)butoxy]-3,4-dihydro-2(1H)-quinolinone] | low | low | – | – | – |
| O=C1CCc2cc(OCCCCc3nnnn3C3CCCCC3)ccc2N1 [Form B, 6-[4-(1-cyclohexyl-1H-tetrazol-5-yl)butoxy]-3,4-dihydro-2(1H)-quinolinone] | – | – | stable | more soluble than Form A | approximately 119 °C |
| O=C1CCc2cc(OCCCCc3nnnn3C3CCCCC3)ccc2N1 [Form C, 6-[4-(1-cyclohexyl-1H-tetrazol-5-yl)butoxy]-3,4-dihydro-2(1H)-quinolinone] | – | – | stable | more soluble than Form A | approximately 147 °C |
